Source: patent publication US11771676B2, “Method for preparing high-load oral paclitaxel capsule for slow release in colon” (Jiangnan University, priority 2022, dated 2023)

Assay: Determination of stability in upper digestive tract and simulated colonic release (SGF, SIF, SCF; dialysis bag, UV 230 nm)
Assay type: physicochemical
Conditions: cumulative release after SGF and SIF
Procedure: 6. Determination of Stability in Upper Digestive Tract and Simulated Colonic Release
A simulated gastric fluid (SGF, a pH of 1.2) consists of 2.95 g/L of sodium chloride and 8 ml/L of hydrochloric acid. A paclitaxel capsule (1 mg/ml of paclitaxel (dry weight)) is added to the SGF containing 3.2 g/L of pepsin and placed in a sealed dialysis bag (8,000-14,000 Da), then the dialysis bag is soaked in the SGF containing 3% (v/w) Tween-20 and stirred at 100 rpm at 37±0.5° C., and 2 ml of a release medium is withdrawn at 30 min, 60 min, 90 min, and 120 min respectively. An equal volume of the fresh SGF is added to maintain a volume after each sampling.
A pH value of the SGF system is adjusted to 6.8 with disodium hydrogen phosphate and a fresh porcine trypsin solution at 30 mg/mL is added into the dialysis bag to obtain a simulated intestinal fluid (SIF). 2 ml of a release medium is taken out at 30 min, 60 min, 90 min, and 120 min respectively and a concentration of paclitaxel is determined. An equal volume of the fresh release medium is added to maintain a volume after each sampling. […]
The concentration of paclitaxel is measured with an ultraviolet spectrophotometer at a wavelength of 230 nm.

release amount (dissolution rate) in a stomach-small intestine: about 25%
Compound: CC(=O)O[C@H]1C(=O)[C@@]2(C)[C@H]([C@H](OC(=O)c3ccccc3)[C@]3(O)C[C@H](OC(=O)[C@H](O)[C@@H](NC(=O)c4ccccc4)c4ccccc4)C(C)=C1C3(C)C)[C@]1(OC(C)=O)CO[C@@H]1C[C@@H]2O [raw paclitaxel, paclitaxel]
